Measurements reported in paper PMC7717492 (Science translational medicine, 2019).
pKd: −log10 of the molar value. “Also recorded” adds a separate entry of the source.

Assays:
[1] = system: MAPK14/p38α knockout clones; test: Sensitivity of MAPK14/p38α knockout clones to chemotherapy agents; format: cell-based, human; settings: multiple cell lines
TOV-21G HDAC6-KO cells = test: Drug sensitivity of HDAC6-KO ovarian cancer cells; format: cell-based, human; settings: ARID1A-mutant ovarian cancer cell line
HDAC6-KO HAP1 cells = settings: cited from earlier work
[2] = system: Rosa26 and PAK4-KO melanoma cells; test: 7-point dose-response of Rosa26 and PAK4-KO cells with PF-3758309; format: cell-based; settings: Homo sapiens, A-375
MPS1 mutant cells = format: cell-based; settings: CRISPR-mediated HDR knock-in
HDAC6 knockout clones = test: Sensitivity of HDAC6 knockout clones to chemotherapy agents; format: cell-based, human; settings: HDAC6 knockout versus control clones
[3] = system: OTS964-resistant HCT116 clones; test: Paclitaxel sensitivity of OTS964-resistant clones; settings: HCT116 clones resistant to OTS964
p53 knockout cells = test: Nutlin-3a sensitivity after p53 knockout; format: cell-based
CDK11B = CDK11B (Homo sapiens, UniProt P21127); test: Binding of OTS964 to different CDKs
CDK11B, sequence (P21127 whole entry): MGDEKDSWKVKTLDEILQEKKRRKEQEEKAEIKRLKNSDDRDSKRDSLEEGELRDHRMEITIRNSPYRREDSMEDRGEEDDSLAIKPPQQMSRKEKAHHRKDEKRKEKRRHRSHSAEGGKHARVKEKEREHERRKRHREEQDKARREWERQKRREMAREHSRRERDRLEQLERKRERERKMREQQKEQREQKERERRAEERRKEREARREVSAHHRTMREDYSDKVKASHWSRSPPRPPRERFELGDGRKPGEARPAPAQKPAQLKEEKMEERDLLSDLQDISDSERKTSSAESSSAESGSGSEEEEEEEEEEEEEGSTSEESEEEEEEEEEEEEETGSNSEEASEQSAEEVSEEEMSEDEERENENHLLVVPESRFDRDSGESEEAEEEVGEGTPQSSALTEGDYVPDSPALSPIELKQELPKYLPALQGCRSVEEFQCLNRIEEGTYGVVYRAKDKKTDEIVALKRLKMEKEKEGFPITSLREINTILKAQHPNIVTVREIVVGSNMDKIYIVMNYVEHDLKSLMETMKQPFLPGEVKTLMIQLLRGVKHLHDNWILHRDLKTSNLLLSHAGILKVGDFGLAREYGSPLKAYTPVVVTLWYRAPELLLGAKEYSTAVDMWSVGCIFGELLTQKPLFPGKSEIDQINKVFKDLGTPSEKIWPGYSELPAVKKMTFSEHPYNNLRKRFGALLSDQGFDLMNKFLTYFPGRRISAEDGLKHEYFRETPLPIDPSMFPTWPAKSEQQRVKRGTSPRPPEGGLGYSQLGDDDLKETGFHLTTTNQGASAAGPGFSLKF

[4] = system: CDK11B G579S / G579A cancer cells; test: Viability of CDK11B xDFG mutant cancer cells in OTS964; format: cell-based, human
[5] = system: A375 cells expressing H2B-mCherry; test: Mitotic progression after release from double-thymidine block into OTS964; format: cell-based, human
multiple cancer types = test: OTS964 potency in cancer cell lines
[6] = system: MELK-knockout (KO) cancer cells; settings: cited from earlier work
FKBP12 KO clones = test: Rapamycin sensitivity of FKBP12 knockout clones; format: cell-based
CASP3-KO lines = test: Dose-response of Rosa26 and CASP3-KO cells with putative caspase-3 activators; format: cell-based, human; settings: four different cell lines incl. A375 and HCT116
MCF7 cells = settings: caspase 3-deficient breast cancer cell line; cited from earlier work

Structure (SMILES): Nc1ccn([C@@H]2O[C@H](CO)[C@@H](O)C2(F)F)c(=O)n1 [gemcitabine]
- sensitivity of MAPK14/p38α knockout clones versus Rosa26 control clones [1]: as sensitive

Structure (SMILES): O=C(CCCCCCNC(=O)c1cnc(N(c2ccccc2)c2ccccc2)nc1)NO [ricolinostat]
- sensitivity of TOV-21G HDAC6-KO cells (TOV-21G HDAC6-KO cells): remained sensitive
- killing of HDAC6-KO HAP1 cells (HDAC6-KO HAP1 cells): continued to kill; also recorded: kills

Structure (SMILES): Cn1nnc2c(C(N)=O)ncn2c1=O [temozolomide]
- sensitivity of MAPK14/p38α knockout clones versus Rosa26 control clones [1]: as sensitive

Structure (SMILES): Cc1nc(Nc2[nH]nc3c2CN(C(=O)N[C@H](CN(C)C)c2ccccc2)C3(C)C)c2sccc2n1 [PF-3758309]
- GI50 [2]: ~9 nM

Structure (SMILES): COc1cc(OC2CCN(C)CC2)ccc1Nc1ncc2c(n1)n(C1CCCC1)c(=O)n2C [AZ3146]
- effect of MPS1 kinase domain missense mutation on drug sensitivity (MPS1 mutant cells): capable of granting resistance

Structure (SMILES): N.N.O=C([O-])C1(C(=O)[O-])CCC1.[Pt+2] [carboplatin]
- sensitivity of MAPK14/p38α knockout clones versus Rosa26 control clones [1]: as sensitive

Structure (SMILES): CC(=O)O[C@H]1C(=O)[C@@]2(C)[C@H]([C@H](OC(=O)c3ccccc3)[C@]3(O)C[C@H](OC(=O)[C@H](O)[C@@H](NC(=O)c4ccccc4)c4ccccc4)C(C)=C1C3(C)C)[C@]1(OC(C)=O)CO[C@@H]1C[C@@H]2O [paclitaxel]
- effect of loss of HDAC6 on drug sensitivity (HDAC6 knockout clones): failed to sensitize
- sensitivity of OTS964-resistant clones [3]: remained sensitive

Structure (SMILES): COc1ccc(C2=N[C@@H](c3ccc(Cl)cc3)[C@@H](c3ccc(Cl)cc3)N2C(=O)N2CCNC(=O)C2)c(OC(C)C)c1 [nutlin-3a]
- effect of p53 knockout on drug sensitivity (p53 knockout cells): conferred resistance

Structure (SMILES): Cc1cc(O)c(-c2ccc(C(C)CN(C)C)cc2)c2c1[nH]c(=O)c1sccc12 (stereo not drawn) [OTS964]
- pKd (CDK11B): 7.40
- effect of CDK11B xDFG Gly→Ser (G579S) mutation on viability in drug ([4]; A375, A2780, DLD1 and MDA-MB-231 cells, lethal concentration of OTS964): sufficient to restore viability
- effect of alanine substitution at CDK11B residue 579 on drug efficacy ([4]; CDK11B residue 579 alanine substitution): sufficient to decrease the efficacy
- effect of G579S substitution on mitotic entry and progression in drug ([5]; A375 cells with CDK11B G579S, lethal concentration of OTS964): rescued normal mitotic entry and progression
- effect on DNA replication ([5]; arrested cells: 4C DNA content, no 53BP1-foci): did not perturb DNA replication
- effect on cell cycle ([5]; lethal concentration of OTS964, release from double-thymidine block): arrested in G2
- effect on mitotic progression ([5]; low concentration of OTS964, release from double-thymidine block): delayed nuclear envelope breakdown and progressed slowly through mitosis
- potency (multiple cancer types): nanomolar potency

Structure (SMILES): CC(=O)c1cnc2ccc(-c3cc(Cl)c(O)c(Cl)c3)nc2c1N[C@H]1CC[C@H](CN(C)C)CC1 [OTS167]
- killing of MELK-KO cancer cells [6]: no decrease in potency

Structure (SMILES): O=C(CCCCCCNC(=O)c1cnc(N(c2ccccc2)c2ccccc2Cl)nc1)NO [citarinostat]
- sensitivity of TOV-21G HDAC6-KO cells (TOV-21G HDAC6-KO cells): remained sensitive

Structure (SMILES): CO[C@H]1C[C@@H]2CC[C@@H](C)[C@@](O)(O2)C(=O)C(=O)N2CCCC[C@H]2C(=O)O[C@H]([C@H](C)C[C@@H]2CC[C@@H](O)[C@H](OC)C2)CC(=O)[C@H](C)/C=C(\C)[C@@H](O)[C@@H](OC)C(=O)[C@H](C)C[C@H](C)/C=C/C=C/C=C/1C [rapamycin]
- effect of FKBP12 knockout on drug sensitivity (FKBP12 KO clones): increased resistance

Structure (SMILES): C=CCc1cccc(/C=N/NC(=O)CN2CCN(Cc3ccccc3)CC2)c1O [PAC-1]
- sensitivity of CASP3-KO lines compared to Rosa26 controls (CASP3-KO lines): identical sensitivity
- IC50 value in MCF7 cells compared to caspase 3-expressing cell lines (MCF7 cells): higher

Structure (SMILES): CC(C)C[C@H](NC(=O)[C@H](Cc1ccccc1)NC(=O)c1cnccn1)B(O)O [bortezomib]
- sensitivity of MAPK14/p38α knockout clones versus Rosa26 control clones [1]: as sensitive
